Reference: paper PMC9146423, “Discovery of Nitro-azolo[1,5-a]pyrimidines with Anti-Inflammatory and Protective Activity against LPS-Induced Acute Lung Injury” (Pharmaceuticals, 2022)

How the values were obtained:
[1] = test system: peritoneal macrophages of C57bl/6j mice; assay: Yeast phagocytosis assay and macrophage spreading; format: cell-based, mouse
Experimental: Next, we evaluated lead compound 9g for immunodepressant activity in parallel with the reference drug dexamethasone. Yeast phagocytosis was assessed by microscopic examination as the number of phagocytes per 100 macrophages and as the number of phagocytosed yeast cells in each phagocyte. Cell viability was assessed as lactate dehydrogenase activity in cell supernatants, which correlates with increased cell membrane permeability.
Peritoneal macrophages of C57bl/6j mice were cultured in a 24-well plate at a volume of 500 μL/well (1 × 10^5 cells/mL) for 24 h. Test compounds or DMSO were added to wells in triplicate followed by 50 μL of 1% yeast suspension, and the plates were incubated for 40 min. After 24 or 72 h, the medium was removed. The cells were fixed with May–Grunwald methanol dye and stained with Azur-Eosin in Romanovsky’s modification for 45 min at room temperature, washed, air-dried, and analyzed using a microscope Mikmed-6 (Russia), equipped with a digital camera. The study was performed in three technical replicates and two series; 100 macrophages were processed in each sample to count the captured yeast cells. Macrophage spreading was assessed as a number of pseudopodia.

[2] = Cell viability of LPS-stimulated macrophages, MTT test; format: cell-based; settings: male, C57bl/6j, mouse
Experimental: (§1) Peritoneal macrophages (PM) were isolated from the peritoneal exudate of 30 male C57bl/6j mice. To accumulate PM, 1 mL of 3% peptone solution was injected intraperitoneally. After 3 days, the mice were euthanized by cervical dislocation. Cells of peritoneal exudate were obtained by aseptic washing of the abdominal cavity with 5 mL of sterile Hanks’s solution (+4–6 °C) without calcium and magnesium ions. The total number and viability of cells were assessed in a Goryaev counting chamber (Russia) with a 0.4% trypan blue staining (Sigma-Aldrich, St. Louis, MO, USA). The cell concentration was adjusted to 1.0 × 10^6 cells/mL in DMEM (Gibco) supplemented with 2 mM L-glutamine (Gibco, Waltham, MA, USA), 10% heat-inactivated fetal bovine serum (BioClot, Bavaria, Germany), 100 U/mL penicillin, and […] streptomycin (Gibco) and plated 200 μL/well in 96-well transparent plates (SPL Life Sciences Co., Ltd., Pocheon-si, Korea). After 2 h at 37 °C in a humidified atmosphere with 5% CO2, the wells were washed to remove non-adherent cells. After 24 h of incubation, 20 μL of the supernatants were substituted with 20 μL of solutions of test compounds, followed by E. coli O127:B8 LPS (100 ng/mL final concentration) after 30 min. The experiments were run in 3 independent replicates.
(§2) The activity of lactate dehydrogenase (LDH) in a cell culture medium served as a marker of membrane permeability and cell death. Aliquotes of supernatants were taken after 24 h of inoculation with test compounds, mixed with 250 μL of […] NADH solution in 54 mM phosphate-buffered saline (pH 7.5). Then, 25 μL of a 6.48 mM pyruvate solution was added to the mixture. The optical density was followed at a wavelength of 340 nm for 20 min. The MTT-test was performed 24 h after incubations of cells with tested compounds. Briefly, 20 μL of MTT solution was added to each well, incubated at 37 °C in a humidified atmosphere containing 5% CO2 for 4 h. The culture medium was removed, the cells were lysed, and formazan crystals were dissolved in 150 μL DMSO. The plates were shaken at room temperature for 10 min, and the optical density was measured in a microplate reader Infinite M200 PRO (Tecan, Grödig, Austria) at a wavelength of 565 nm.

[3] = test system: LPS-stimulated peritoneal macrophages of C57bl/6j mice; assay: as above; format: cell-based; settings: male, C57bl/6j, mouse, 24 h, 100 μM
Experimental: as §1, §2

SMILES: Cc1nc2nnnn2c(NCCc2ccc(O)cc2)c1[N+](=O)[O-] [Compound 9g, N-[2-(4-Hydroxyphenyl)ethyl]-5-methyl-6-nitrotetrazolo-[1,5-a]pyrimidin-7-amine]
- Suppression of phagocytosis ([1]; after 24-h of incubation, data not shown): not
- Decrease of the mean number of phagocytosed yeast cells ([1]; after 72 h of incubation): 16%
- Macrophage phagocytic activity (in words) ([1]; after 72 h of incubation): preserved macrophage phagocytic activity
- Macrophage spreading ([1]; yeast-stimulated, visually scored): reduced it to a nearly unstimulated level
- CC50 at 24 h [2]: > 100 µM
- Cell Viability vs. LPS Control, MTT Test [3]: 84.65 ± 5.83%
